Data as given in patent US20240384350A1, “METHODS OF TREATING CANCER WITH KINASE INHIBITORS” (BOARD OF REGENTS, THE UNIVERSITY OF TEXAS SYSTEM, priority 2021, published 2024).

Columns and labels:
Assay in all cases: Ba/F3 drug screening, Cell Titer Glo, IC50 Mut/WT
Type in all cases: cell-based
EGFR L718V = biological target: T1, EGFR L718V (Homo sapiens, UniProt P00533, L718V); settings: Ba/F3 cells, EGFR L718V (PACC), Mut/WT
T1 construct: expressed in transfected cells; host or cells: Ba/F3

EGFR G719A = biological target: T2, EGFR G719A (Homo sapiens, UniProt P00533, G719A); settings: Ba/F3 cells, EGFR G719A (PACC), Mut/WT
T2 construct: expressed in transfected cells; host or cells: Ba/F3
Experimental: (§1) Data represent the ratio of the IC50 value for a given TKI for cells with a PACC EGFR mutation to the IC50 value for cells with wildtype EGFR.
(§2) Ba/F3 cell generation, drug screening, and IC50 approximations. Ba/F3 cells were obtained as a gift from Dr. Gordon Mills (MD Anderson Cancer Center), and maintained in RPMI (Sigma) containing 10% FBS, 1% penicillin/streptomycin, and 10 ng/ml recombinant mIL-3 (R&D Biosystems). To establish stable Ba/F3 cell lines, Ba/F3 cells were transduced with retroviruses containing mutant EGFR plasmids for 12-24 hours.
(§3) After 48-72 hours of transduction, 2 μg/ml puromycin (Invitrogen) was added to Ba/F3 cell lines in complete RPMI. To select for EGFR positive cell lines, cells were stained with PE-EGFR (Biolegend) and sorted by FACS. After sorting, EGFR positive cells were maintained in RPMI containing 10% FBS, 1% penicillin/streptomycin, and 1 ng/ml EGF to support cell viability. Drug screening was performed as previously described^41,42. Shortly, cells were plated in 384-well plates (Greiner Bio-One) at 2000-3000 cells per well in technical triplicate. Seven different concentrations of TKIs or DMSO vehicle were added to reach a final volume of 40 μL per well. After 72 hours, 11 μL of Cell Titer Glo (Promega) was added to each well. Plates were incubated for a minimum of 10 minutes, and bioluminescence was determined using a FLUOstar OPTIMA plate reader (BMG LABTECH). Raw bioluminescence values were normalized to DMSO control treated cells, and values were plotted in GraphPad Prism. […] Drug screens were performed in technical triplicate on each plate and either duplicate or triplicate biological replicates.

EGFR E709K = biological target: T3, EGFR E709K (Homo sapiens, UniProt P00533, E709K); settings: Ba/F3 cells, EGFR E709K (PACC), Mut/WT
T3 construct: expressed in transfected cells; host or cells: Ba/F3

EGFR G719S = biological target: T4, EGFR G719S (Homo sapiens, UniProt P00533, G719S); settings: Ba/F3 cells, EGFR G719S (PACC), Mut/WT
T4 construct: expressed in transfected cells; host or cells: Ba/F3

EGFR G719A L861Q = biological target: T5, EGFR G719A L861Q (Homo sapiens, UniProt P00533, G719A/L861Q); settings: Ba/F3 cells, EGFR G719A L861Q (PACC), Mut/WT
T5 construct: expressed in transfected cells; host or cells: Ba/F3
Experimental: as §1, §2, §3

EGFR K754E = biological target: T6, EGFR K754E (Homo sapiens, UniProt P00533, K754E); settings: Classical-Like, 72 hours
T6 construct: expressed in transfected cells; host or cells: Ba/F3 cells, retroviral pBabe-Puro vector
Experimental: (§4) Data represent the ratio of the IC50 value for a given TKI for cells with a classical-like EGFR mutation to the IC50 value for cells with wildtype EGFR.
as §2
(§5) After 48-72 hours of transduction, 2 μg/ml puromycin (Invitrogen) was added to Ba/F3 cell lines in complete RPMI. To select for EGFR positive cell lines, cells were stained with PE-EGFR (Biolegend) and sorted by FACS. After sorting, EGFR positive cells were maintained in RPMI containing 10% FBS, 1% penicillin/streptomycin, and 1 ng/ml EGF to support cell viability. […] Shortly, cells were plated in 384-well plates (Greiner Bio-One) at 2000-3000 cells per well in technical triplicate. Seven different concentrations of TKIs or DMSO vehicle were added to reach a final volume of 40 μL per well. After 72 hours, 11 μL of Cell Titer Glo (Promega) was added to each well. Plates were incubated for a minimum of 10 minutes, and bioluminescence was determined using a FLUOstar OPTIMA plate reader (BMG LABTECH). Raw bioluminescence values were normalized to DMSO control treated cells, and values were plotted in GraphPad Prism. […] Drug screens were performed in technical triplicate on each plate and either duplicate or triplicate biological replicates.

EGFR K757R = biological target: T7, EGFR K757R (Homo sapiens, UniProt P00533, K757R); settings: Ba/F3 cells, EGFR K757R (PACC), Mut/WT
T7 construct: expressed in transfected cells; host or cells: Ba/F3
Experimental: as §1, §2
(§6) After 48-72 hours of transduction, 2 μg/ml puromycin (Invitrogen) was added to Ba/F3 cell lines in complete RPMI. To select for EGFR positive cell lines, cells were stained with PE-EGFR (Biolegend) and sorted by FACS. After sorting, EGFR positive cells were maintained in RPMI containing 10% FBS, 1% penicillin/streptomycin, and 1 ng/ml EGF to support cell viability. Drug screening was performed as previously described^41,42. Shortly, cells were plated in 384-well plates (Greiner Bio-One) at 2000-3000 cells per well in technical triplicate. Seven different concentrations of TKIs or DMSO vehicle were added to reach a final volume of 40 μL per well. After 72 hours, 11 μL of Cell Titer Glo (Promega) was added to each well. Plates were incubated for a minimum of 10 minutes, and bioluminescence was determined using a FLUOstar OPTIMA plate reader (BMG LABTECH). Raw bioluminescence values were normalized to DMSO control treated cells, and values were plotted in GraphPad Prism. […] Drug screens were performed in technical triplicate on each plate and either duplicate or triplicate biological replicates. […] Statistical differences between groups were determined by ANOVA as described in the figure legends.

EGFR L833V = biological target: T8, EGFR L833V (Homo sapiens, UniProt P00533, L833V); settings: Classical-Like, 72 hours
T8 construct: expressed in transfected cells; host or cells: Ba/F3 cells, retroviral pBabe-Puro vector
Experimental: as §4, §2, §5

EGFR G724S T790M = biological target: T9, EGFR G724S T790M (Homo sapiens, UniProt P00533, G724S/T790M); settings: T790M-like-3R, 72 hours
T9 construct: expressed in transfected cells; host or cells: Ba/F3
Experimental: Data represent the ratio of the IC50 value for a given TKI for cells with a T790M-like-3R EGFR mutation to the IC50 value for cells with wildtype EGFR.
as §2
After 48-72 hours of transduction, 2 μg/ml puromycin (Invitrogen) was added to Ba/F3 cell lines in complete RPMI. To select for EGFR positive cell lines, cells were stained with PE-EGFR (Biolegend) and sorted by FACS. After sorting, EGFR positive cells were maintained in RPMI containing 10% FBS, 1% penicillin/streptomycin, and 1 ng/ml EGF to support cell viability. […] Shortly, cells were plated in 384-well plates (Greiner Bio-One) at 2000-3000 cells per well in technical triplicate. Seven different concentrations of TKIs or DMSO vehicle were added to reach a final volume of 40 μL per well. After 72 hours, 11 μL of Cell Titer Glo (Promega) was added to each well. Plates were incubated for a minimum of 10 minutes, and bioluminescence was determined using a FLUOstar OPTIMA plate reader (BMG LABTECH). Raw bioluminescence values were normalized to DMSO control treated cells, and values were plotted in GraphPad Prism. […] Drug screens were performed in technical triplicate on each plate and either duplicate or triplicate biological replicates. […] Statistical differences between groups were determined by ANOVA as described in the figure legends.

EGFR S768dupSVD V769M = biological target: T10, EGFR S768dupSVD V769M (Homo sapiens, UniProt P00533, INS768MDS/V769M); settings: Ex20, 72 hours
T10 construct: expressed in transfected cells; host or cells: Ba/F3 cells, retroviral pBabe-Puro vector (vector made by GeneScript from EGFR S768dupSVD, c.2305G > A)
Experimental: Data represent the ratio of the IC50 value for a given TKI for cells with an ex20ins EGFR mutation to the IC50 value for cells with wildtype EGFR.
as §2, §6

EGFR E709_T710del insD = biological target: T11, EGFR E709_T710del insD (Homo sapiens, UniProt P00533, DEL709-709/T710D); settings: Ba/F3 cells, EGFR E709_T710del insD (PACC), Mut/WT
T11 construct: expressed in transfected cells; host or cells: Ba/F3

EGFR D761N = biological target: T12, EGFR D761N (Homo sapiens, UniProt P00533, D761N); settings: Classical-Like, 72 hours
T12 construct: expressed in transfected cells; host or cells: Ba/F3 cells, retroviral pBabe-Puro vector

EGFR L858R T790M V843I = biological target: T13, EGFR L858R T790M V843I (Homo sapiens, UniProt P00533, L858R/T790M/V843I); settings: T790M-like-3S, 72 hours
T13 construct: expressed in transfected cells; host or cells: Ba/F3

EGFR Ex19del = biological target: T14, EGFR Ex19del (Homo sapiens, UniProt P00533, DEL746-750); settings: Classical-Like, 72 hours
T14 construct: expressed in transfected cells; host or cells: Ba/F3 cells, retroviral pBabe-Puro vector

EGFR A763insLQEA = biological target: T15, EGFR A763insLQEA (Homo sapiens, UniProt P00533, INS763LQEA); settings: Classical-Like, 72 hours
T15 construct: expressed in transfected cells; host or cells: Ba/F3 cells, retroviral pBabe-Puro vector

EGFR L858R G724S = biological target: T16, EGFR L858R G724S (Homo sapiens, UniProt P00533, G724S/L858R); settings: Ba/F3 cells, EGFR L858R G724S (PACC), Mut/WT
T16 construct: expressed in transfected cells; host or cells: Ba/F3 (retroviral transduction, pBabe-Puro based vectors)

EGFR L858R/C797S = biological target: T17, EGFR L858R/C797S (Homo sapiens, UniProt P00533, C797S/L858R); settings: Ba/F3 cells, EGFR L858R/C797S (PACC), Mut/WT
T17 construct: expressed in transfected cells; host or cells: Ba/F3
Experimental: as §1, §2, §3

EGFR L858R T790M L718V = biological target: T18, EGFR L858R T790M L718V (Homo sapiens, UniProt P00533, L718V/L858R/T790M); settings: T790M-like-3R, 72 hours
T18 construct: expressed in transfected cells; host or cells: Ba/F3

EGFR L858R/L792H = biological target: T19, EGFR L858R/L792H (Homo sapiens, UniProt P00533, L792H/L858R); settings: Ba/F3 cells, EGFR L858R/L792H (PACC), Mut/WT
T19 construct: expressed in transfected cells; host or cells: Ba/F3

EGFR E709K G719S = biological target: T20, EGFR E709K G719S (Homo sapiens, UniProt P00533, E709K/G719S); settings: Ba/F3 cells, EGFR E709K G719S (PACC), Mut/WT
T20 construct: expressed in transfected cells; host or cells: Ba/F3
Experimental: as §1, §2, §3

EGFR Ex19del/L792H = biological target: T21, EGFR Ex19del/L792H (Homo sapiens, UniProt P00533, DEL746-750/L792H); settings: Ba/F3 cells, EGFR Ex19del/L792H (PACC), Mut/WT
T21 construct: expressed in transfected cells; host or cells: Ba/F3

EGFR G719A/R776C = biological target: T22, EGFR G719A/R776C (Homo sapiens, UniProt P00533, G719A/R776C); settings: Ba/F3 cells, EGFR G719A/R776C (PACC), Mut/WT
T22 construct: expressed in transfected cells; host or cells: Ba/F3
Experimental: as §1, §2, §3

EGFR L718Q = biological target: T23, EGFR L718Q (Homo sapiens, UniProt P00533, L718Q); settings: Ba/F3 cells, EGFR L718Q (PACC), Mut/WT
T23 construct: expressed in transfected cells; host or cells: Ba/F3

ratio of the IC50 value for cells with a PACC EGFR mutation to the IC50 value for cells with wildtype EGFR (EGFR L718V)	ratio of the IC50 value for cells with a PACC EGFR mutation to the IC50 value for cells with wildtype EGFR (EGFR G719A)	ratio of the IC50 value for cells with a PACC EGFR mutation to the IC50 value for cells with wildtype EGFR (EGFR E709K)	ratio of the IC50 value for cells with a PACC EGFR mutation to the IC50 value for cells with wildtype EGFR (EGFR G719S)	ratio of the IC50 value for cells with a PACC EGFR mutation to the IC50 value for cells with wildtype EGFR (EGFR G719A L861Q)	ratio of IC50 for cells with mutant EGFR to IC50 for cells with wildtype EGFR (Mut/WT) (EGFR K754E)	ratio of the IC50 value for cells with a PACC EGFR mutation to the IC50 value for cells with wildtype EGFR (EGFR K757R)	ratio of IC50 for cells with mutant EGFR to IC50 for cells with wildtype EGFR (Mut/WT) (EGFR L833V)	ratio of IC50 for cells with mutant EGFR to IC50 for cells with wildtype EGFR (Mut/WT) (EGFR G724S T790M)	ratio of IC50 for cells with mutant EGFR to IC50 for cells with wildtype EGFR (Mut/WT) (EGFR S768dupSVD V769M)	ratio of the IC50 value for cells with a PACC EGFR mutation to the IC50 value for cells with wildtype EGFR (EGFR E709_T710del insD)	ratio of IC50 for cells with mutant EGFR to IC50 for cells with wildtype EGFR (Mut/WT) (EGFR D761N)	ratio of IC50 for cells with mutant EGFR to IC50 for cells with wildtype EGFR (Mut/WT) (EGFR L858R T790M V843I)	ratio of IC50 for cells with mutant EGFR to IC50 for cells with wildtype EGFR (Mut/WT) (EGFR Ex19del)	ratio of IC50 for cells with mutant EGFR to IC50 for cells with wildtype EGFR (Mut/WT) (EGFR A763insLQEA)	ratio of the IC50 value for cells with a PACC EGFR mutation to the IC50 value for cells with wildtype EGFR (EGFR L858R G724S)	ratio of the IC50 value for cells with a PACC EGFR mutation to the IC50 value for cells with wildtype EGFR (EGFR L858R/C797S)	ratio of IC50 for cells with mutant EGFR to IC50 for cells with wildtype EGFR (Mut/WT) (EGFR L858R T790M L718V)	ratio of the IC50 value for cells with a PACC EGFR mutation to the IC50 value for cells with wildtype EGFR (EGFR L858R/L792H)	ratio of the IC50 value for cells with a PACC EGFR mutation to the IC50 value for cells with wildtype EGFR (EGFR E709K G719S)	SMILES	also measured
0.5426	0.1344	0.2663	0.2727	0.03136	0.04901	1.658	0.02478	0.1395	1.96	0.497	0.1966	0.01519	0.006035	0.3419	0.5799	5.266	0.6413	0.2624	0.5339	C=CC(=O)N1CC[C@@H](Oc2nc(Nc3ccc(N4CCC(N5CCN(C)CC5)CC4)cc3)c(C(N)=O)nc2CC)C1 [Naquotinib]	ratio of the IC50 value for cells with a PACC EGFR mutation to the IC50 value for cells with wildtype EGFR (EGFR Ex19del/L792H): 0.02929; ratio of the IC50 value for cells with a PACC EGFR mutation to the IC50 value for cells with wildtype EGFR (EGFR G719A/R776C): 0.2899; ratio of the IC50 value for cells with a PACC EGFR mutation to the IC50 value for cells with wildtype EGFR (EGFR L718Q): 5.448
1.157	0.06775	0.0309	0.08165	0.06344	0.04749	0.3486	0.002739	0.1867	0.3262	0.1584	0.0009686	0.02498	0.0005409	0.05507	0.009244	3.46	0.6592	0.3145	0.4195	Cc1cc(C(=O)Nc2nc3cccc(Cl)c3n2[C@@H]2CCCCN(C(=O)/C=C/CN(C)C)C2)ccn1 [Nazartinib]	ratio of the IC50 value for cells with a PACC EGFR mutation to the IC50 value for cells with wildtype EGFR (EGFR Ex19del/L792H): 0.5146; ratio of the IC50 value for cells with a PACC EGFR mutation to the IC50 value for cells with wildtype EGFR (EGFR G719A/R776C): 0.05772; ratio of the IC50 value for cells with a PACC EGFR mutation to the IC50 value for cells with wildtype EGFR (EGFR L718Q): 1.245
